# Laboratory results published in ChEMBL document CHEMBL1201862, “PubChem BioAssay data set” (2004).
# Calls of active or inactive are those of the source.
# Experiments:
# Trypsin = Trypsin (Sus scrofa, UniProt P00761); test: trypsin protease activity blockade – biochemical, quenched peptide fluorescence, cherry-pick, selectivity assay for Rce1 protease inhibitor project, dose response (AID 488789)
# CAAX prenyl protease 2 = molecular target: T1, CAAX prenyl protease 2 (Homo sapiens, UniProt Q9Y256); test: inhibition of Ras-converting CAAX protease Rce1 – biochemical, yeast membranes, quenched-peptide fluorescence, cherry-pick, dose response (AID 588849)
# T1 sequence (Q9Y256 whole entry): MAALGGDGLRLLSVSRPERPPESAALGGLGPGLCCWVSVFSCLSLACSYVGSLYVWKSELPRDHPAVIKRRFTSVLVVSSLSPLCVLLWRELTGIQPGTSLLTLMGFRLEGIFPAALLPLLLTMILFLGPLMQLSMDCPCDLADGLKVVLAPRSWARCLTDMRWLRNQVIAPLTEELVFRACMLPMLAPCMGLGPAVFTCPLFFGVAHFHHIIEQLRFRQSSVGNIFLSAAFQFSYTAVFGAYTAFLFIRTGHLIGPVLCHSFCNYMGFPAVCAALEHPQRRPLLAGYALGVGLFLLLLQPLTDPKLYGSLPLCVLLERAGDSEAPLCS
# BJ = test: growth inhibition of engineered Ras-driven BJ cells – cell-based, alamar blue fluorescence, cherrypicked samples, dose response (AID 2631); type: functional; conditions: Homo sapiens;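 also: confirmatory dose-response assay in RAS-dependent BJ fibroblasts engineered with TERT, LT and ST, with cytotoxicity read by fluorescence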
# INS1 = test: INS-1E survival protection against cytokine death – cell-based, luminescence, retest, dose response (AID 449756); type: functional; conditions: Rattus norvegicus;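 also: cell death triggered by IL-1 beta plus TNF-alpha plus IFN-gamma mixture; protective hits raise ATP signal compared with cytokine alone wells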
# [1] = molecular target: T2, Short transient receptor potential channel 4 (Mus musculus, UniProt Q9QUQ5); test: calcium entry via TRPC4 opening agents – cell-based, HEK293 TRPC4/mu-opioid, Fluo-4 calcium, dose response (AID 434937); type: functional
# T2 sequence (Q9QUQ5 whole entry): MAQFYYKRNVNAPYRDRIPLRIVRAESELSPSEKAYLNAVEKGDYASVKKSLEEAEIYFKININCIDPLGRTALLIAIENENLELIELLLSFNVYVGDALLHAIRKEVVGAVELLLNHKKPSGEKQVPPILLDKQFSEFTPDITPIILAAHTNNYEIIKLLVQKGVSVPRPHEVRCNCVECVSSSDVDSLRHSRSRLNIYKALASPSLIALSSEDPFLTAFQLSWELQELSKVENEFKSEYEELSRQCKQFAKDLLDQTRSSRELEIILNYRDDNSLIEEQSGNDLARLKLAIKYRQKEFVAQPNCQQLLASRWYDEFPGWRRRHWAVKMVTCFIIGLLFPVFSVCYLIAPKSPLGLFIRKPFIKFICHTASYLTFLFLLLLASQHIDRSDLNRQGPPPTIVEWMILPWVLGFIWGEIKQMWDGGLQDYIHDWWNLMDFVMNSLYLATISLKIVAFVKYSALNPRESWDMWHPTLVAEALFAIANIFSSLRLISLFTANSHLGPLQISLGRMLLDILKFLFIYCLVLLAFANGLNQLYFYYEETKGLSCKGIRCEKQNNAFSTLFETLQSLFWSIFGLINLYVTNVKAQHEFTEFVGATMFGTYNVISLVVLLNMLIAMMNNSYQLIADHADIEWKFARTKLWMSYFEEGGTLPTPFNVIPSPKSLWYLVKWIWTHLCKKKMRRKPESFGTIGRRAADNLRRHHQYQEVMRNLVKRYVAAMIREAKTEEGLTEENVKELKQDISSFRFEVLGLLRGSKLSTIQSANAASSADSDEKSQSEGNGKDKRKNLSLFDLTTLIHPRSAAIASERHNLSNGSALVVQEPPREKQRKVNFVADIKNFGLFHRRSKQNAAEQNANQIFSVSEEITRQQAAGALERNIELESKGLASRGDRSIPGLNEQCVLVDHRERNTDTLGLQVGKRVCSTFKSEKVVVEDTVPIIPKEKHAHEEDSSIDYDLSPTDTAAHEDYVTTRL
# [2] = molecular target: Delta-type opioid receptor (Homo sapiens, UniProt P41143); test: Counterscreen for agonists of heterodimerization of the mu 1 (OPRM1) and delta 1 (OPRD1) opioid receptors: Luminescence-based cell-based high throughput dose response assay to identify agonists of OPRD1 homodimerization. [Related pubchem assays (depositor defined):AID504326, AID504355, AID504692, AID504904, AID504905]; type: functional
# Sequence of Delta-type opioid receptor (P41143 whole entry): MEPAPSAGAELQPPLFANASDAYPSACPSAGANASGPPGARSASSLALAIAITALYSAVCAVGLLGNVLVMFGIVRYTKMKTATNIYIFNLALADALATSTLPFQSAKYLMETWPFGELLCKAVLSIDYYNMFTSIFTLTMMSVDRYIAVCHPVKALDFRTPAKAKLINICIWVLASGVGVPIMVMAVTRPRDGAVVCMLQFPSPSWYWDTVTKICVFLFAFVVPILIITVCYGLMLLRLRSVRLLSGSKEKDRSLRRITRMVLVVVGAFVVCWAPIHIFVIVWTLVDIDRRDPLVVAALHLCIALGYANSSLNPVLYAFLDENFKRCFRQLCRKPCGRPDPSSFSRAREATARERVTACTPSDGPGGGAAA
# Mu-type opioid receptor = Mu-type opioid receptor (Homo sapiens, UniProt P35372); test: Counterscreen for agonists of heterodimerization of the mu 1 (OPRM1) and delta 1 (OPRD1) opioid receptors: Luminescence-based cell-based high throughput dose response assay to identify agonists of OPRM1 homodimerization.; type: functional;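 also: U2OS cells expressing OPRM1 and beta-arrestin as split beta-galactosidase partners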
# Sequence of Mu-type opioid receptor (P35372 whole entry): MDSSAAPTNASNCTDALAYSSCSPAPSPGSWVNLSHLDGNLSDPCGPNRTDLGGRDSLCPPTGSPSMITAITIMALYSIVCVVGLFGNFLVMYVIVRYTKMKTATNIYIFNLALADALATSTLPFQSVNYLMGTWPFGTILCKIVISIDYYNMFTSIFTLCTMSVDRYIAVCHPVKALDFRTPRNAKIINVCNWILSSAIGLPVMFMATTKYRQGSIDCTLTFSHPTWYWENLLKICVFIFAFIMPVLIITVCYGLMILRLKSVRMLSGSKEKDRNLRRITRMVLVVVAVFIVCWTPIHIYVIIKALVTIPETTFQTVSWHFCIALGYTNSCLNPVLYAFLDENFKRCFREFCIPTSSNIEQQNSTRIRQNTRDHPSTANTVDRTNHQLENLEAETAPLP
# [3] = molecular target: 5-hydroxytryptamine receptor 5A (Homo sapiens, UniProt P47898); test: Counterscreen for agonists of OPRM1-OPRD1 heterodimerization: luminescence-based cell-based high throughput dose response assay to identify agonists of 5-hydroxytryptamine (serotonin) 5A receptor (HTR5A). [Related pubchem assays (depositor defined):AID504326, AID504355, AID504692, AID504904, AID504905]; type: functional
# Sequence of 5-hydroxytryptamine receptor 5A (P47898 whole entry): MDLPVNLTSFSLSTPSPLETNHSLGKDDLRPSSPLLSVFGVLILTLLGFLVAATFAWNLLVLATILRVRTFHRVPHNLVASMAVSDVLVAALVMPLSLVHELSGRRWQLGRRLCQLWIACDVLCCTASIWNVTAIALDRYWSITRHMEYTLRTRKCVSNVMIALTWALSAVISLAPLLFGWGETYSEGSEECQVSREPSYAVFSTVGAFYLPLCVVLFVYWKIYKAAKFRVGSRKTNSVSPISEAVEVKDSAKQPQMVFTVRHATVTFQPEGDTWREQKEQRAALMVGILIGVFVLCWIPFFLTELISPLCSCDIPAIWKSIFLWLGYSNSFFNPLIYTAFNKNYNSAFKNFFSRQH
# [4] = molecular target: T3, Sentrin-specific protease 8 (Homo sapiens, UniProt Q96LD8); test: inhibition of human SENP8 cleavage activity – biochemical, luminescence, SAR follow-up (AID 504501); type: functional
# T3 sequence (Q96LD8 whole entry): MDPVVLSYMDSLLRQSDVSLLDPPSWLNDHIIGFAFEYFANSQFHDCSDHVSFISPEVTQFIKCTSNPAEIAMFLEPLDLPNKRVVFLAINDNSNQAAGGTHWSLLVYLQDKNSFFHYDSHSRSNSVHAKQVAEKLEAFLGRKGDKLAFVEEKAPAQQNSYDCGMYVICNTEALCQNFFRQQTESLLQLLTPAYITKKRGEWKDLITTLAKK
# Caspase-3 = molecular target: T4, Caspase-3 (Homo sapiens, UniProt P42574); test: SAR Analysis of small molecule inhibitors of Sentrin-specific proteases (SENPs) using a Caspase-3 Selectivity assay. [Related pubchem assays (depositor defined):AID2540, AID2599, AID434973, AID489001]; type: functional
# T4 sequence (P42574 whole entry): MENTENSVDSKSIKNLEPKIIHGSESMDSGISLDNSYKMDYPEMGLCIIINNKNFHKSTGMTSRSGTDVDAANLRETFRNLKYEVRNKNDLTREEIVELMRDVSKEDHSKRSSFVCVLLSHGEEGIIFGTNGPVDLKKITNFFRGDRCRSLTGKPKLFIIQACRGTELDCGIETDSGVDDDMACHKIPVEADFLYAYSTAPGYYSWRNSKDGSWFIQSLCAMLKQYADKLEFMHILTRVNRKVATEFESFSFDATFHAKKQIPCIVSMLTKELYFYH
# [5] = molecular target: T5, Sentrin-specific protease 6 (Homo sapiens, UniProt Q9GZR1); test: SAR Analysis of small molecule inhibitors of Sentrin-specific protease 6 (SENP6) using a Luminescent assay. [Related pubchem assays (depositor defined):AID2582, AID2599]; type: functional
# T5 sequence (Q9GZR1 whole entry): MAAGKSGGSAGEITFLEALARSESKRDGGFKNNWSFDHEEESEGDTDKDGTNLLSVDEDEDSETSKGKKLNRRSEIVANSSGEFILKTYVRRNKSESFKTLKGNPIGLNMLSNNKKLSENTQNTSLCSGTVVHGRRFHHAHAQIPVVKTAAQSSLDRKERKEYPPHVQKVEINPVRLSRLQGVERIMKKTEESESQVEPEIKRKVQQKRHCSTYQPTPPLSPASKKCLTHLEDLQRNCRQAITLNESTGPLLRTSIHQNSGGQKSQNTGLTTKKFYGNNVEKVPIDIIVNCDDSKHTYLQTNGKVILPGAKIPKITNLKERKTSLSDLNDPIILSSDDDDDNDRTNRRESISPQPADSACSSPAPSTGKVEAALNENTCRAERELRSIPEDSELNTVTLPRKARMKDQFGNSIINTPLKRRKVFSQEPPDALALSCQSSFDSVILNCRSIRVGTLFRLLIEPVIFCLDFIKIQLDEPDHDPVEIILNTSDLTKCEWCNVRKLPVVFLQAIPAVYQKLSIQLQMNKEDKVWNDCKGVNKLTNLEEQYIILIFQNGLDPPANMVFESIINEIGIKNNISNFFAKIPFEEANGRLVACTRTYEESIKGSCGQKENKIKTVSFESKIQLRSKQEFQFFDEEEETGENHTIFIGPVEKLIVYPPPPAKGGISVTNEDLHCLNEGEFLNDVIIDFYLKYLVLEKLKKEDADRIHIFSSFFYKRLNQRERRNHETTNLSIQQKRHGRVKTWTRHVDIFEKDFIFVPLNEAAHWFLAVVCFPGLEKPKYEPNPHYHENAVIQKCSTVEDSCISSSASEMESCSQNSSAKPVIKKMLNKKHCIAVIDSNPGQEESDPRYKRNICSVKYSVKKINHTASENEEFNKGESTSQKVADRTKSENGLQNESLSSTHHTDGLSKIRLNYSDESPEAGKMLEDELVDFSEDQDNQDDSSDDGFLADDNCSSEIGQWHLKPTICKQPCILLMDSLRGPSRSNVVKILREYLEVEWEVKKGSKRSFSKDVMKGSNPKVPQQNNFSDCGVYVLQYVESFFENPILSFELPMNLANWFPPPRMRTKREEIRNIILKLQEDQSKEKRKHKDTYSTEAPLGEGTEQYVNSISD
# [6] = molecular target: T6, Sentrin-specific protease 7 (Homo sapiens, UniProt Q9BQF6); test: inhibition of human SENP7 cleavage activity – biochemical, luminescence, SAR follow-up (AID 504497); type: functional
# T6 sequence (Q9BQF6 whole entry): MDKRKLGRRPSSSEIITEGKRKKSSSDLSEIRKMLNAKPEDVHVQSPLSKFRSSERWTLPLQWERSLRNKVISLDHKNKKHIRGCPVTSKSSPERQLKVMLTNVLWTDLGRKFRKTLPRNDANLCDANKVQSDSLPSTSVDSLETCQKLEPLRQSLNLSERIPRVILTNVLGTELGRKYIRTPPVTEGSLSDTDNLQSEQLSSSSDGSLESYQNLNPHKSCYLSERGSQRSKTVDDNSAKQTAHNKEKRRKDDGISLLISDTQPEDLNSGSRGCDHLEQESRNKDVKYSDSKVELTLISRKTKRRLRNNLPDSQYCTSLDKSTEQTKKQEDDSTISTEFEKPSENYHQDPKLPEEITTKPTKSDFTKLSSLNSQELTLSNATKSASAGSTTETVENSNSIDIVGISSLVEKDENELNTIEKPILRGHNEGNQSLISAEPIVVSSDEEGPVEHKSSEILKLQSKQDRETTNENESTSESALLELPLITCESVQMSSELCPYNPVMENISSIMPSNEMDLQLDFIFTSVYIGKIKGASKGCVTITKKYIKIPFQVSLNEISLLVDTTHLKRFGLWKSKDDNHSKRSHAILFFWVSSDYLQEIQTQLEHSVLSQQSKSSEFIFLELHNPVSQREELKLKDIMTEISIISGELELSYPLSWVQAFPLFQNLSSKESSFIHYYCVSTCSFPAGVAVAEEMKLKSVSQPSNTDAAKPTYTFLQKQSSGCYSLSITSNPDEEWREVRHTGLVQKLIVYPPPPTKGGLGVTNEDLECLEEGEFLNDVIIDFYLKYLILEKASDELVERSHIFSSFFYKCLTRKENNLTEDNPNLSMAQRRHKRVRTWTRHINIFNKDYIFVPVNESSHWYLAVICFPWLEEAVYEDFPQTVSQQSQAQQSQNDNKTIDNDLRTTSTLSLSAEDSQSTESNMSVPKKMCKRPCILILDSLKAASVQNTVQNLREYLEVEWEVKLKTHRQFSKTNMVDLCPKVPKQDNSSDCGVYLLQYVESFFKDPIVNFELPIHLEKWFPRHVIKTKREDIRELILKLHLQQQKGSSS
# Sequence of Trypsin (P00761 whole entry): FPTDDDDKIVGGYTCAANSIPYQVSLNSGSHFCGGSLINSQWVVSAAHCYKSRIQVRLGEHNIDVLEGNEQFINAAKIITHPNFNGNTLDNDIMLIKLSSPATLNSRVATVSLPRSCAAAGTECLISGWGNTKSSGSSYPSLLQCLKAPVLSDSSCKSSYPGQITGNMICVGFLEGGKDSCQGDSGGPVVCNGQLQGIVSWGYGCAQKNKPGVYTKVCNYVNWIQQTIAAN
AC50 (Trypsin),AC50 (CAAX prenyl protease 2),IC50 (Caspase-3),IC50 [5],IC50 [6],Structure (SMILES),IC50 [4],other results
8500 nM (active),8530 nM (active),–,–,–,Cc1cc(C)n2cc(CSC3=NCCS3)nc2n1,–,–
–,–,–,–,–,OC(c1cc(-c2ccc(Cl)cc2)nc2ccccc12)C1CCCCN1 (stereo not drawn),–,EC50 (BJ): > 133000 nM (inactive); AC50 (INS1): 12200 nM (active)
–,–,–,–,–,CN(C)C(CN=C(S)Nc1cccc(Cl)c1)c1ccccc1 (stereo not drawn),–,EC50 [1]: 596 nM (active); EC50 [2]: 11500 nM (inactive); EC50 (Mu-type opioid receptor): 4640 nM (active); EC50 [3]: > 92500 nM (inactive)
–,–,1100 nM (active),1300 nM (active),1300 nM (active),CSc1ccc(/C=C/c2noc(-c3ccccc3O)n2)cc1,1300 nM (active),–
–,–,1300 nM (active),2010 nM (active),1960 nM (active),Clc1ccccc1-c1nnc(/C=C/c2cccs2)o1,2060 nM (active),–
2800 nM (active),2170 nM (active),–,–,–,CN(C)c1ccc(/C=N/NC(=O)C(O)c2ccc(Br)cc2)cc1 (stereo not drawn),–,–
